Test results reported in the CheMixHub ionic liquid set.

Experiment: xn = mol fraction of the nth substance listed

CCCC[P+](CCCC)(CCCC)CCCC.F[B-](F)(F)F + C1CCOC1
298.15 K, 100 kPa
Conditions	viscosity [mPa·s]
x1 = 0.0008214	0.468
x1 = 0.001232	0.473
x1 = 0.001649	0.478
x1 = 0.002058	0.483
x1 = 0.002474	0.489
x1 = 0.002883	0.495

CCCC[P+](CCCC)(CCCC)CCCC.F[B-](F)(F)F + C1CCOC1 + C1COCO1
298.15 K, 100 kPa
Conditions	viscosity [mPa·s]
x1 = 0.0007279, x2 = 0.2549	0.563
x1 = 0.0007522, x2 = 0.5064	0.531
x1 = 0.0007834, x2 = 0.7544	0.499
x1 = 0.001095, x2 = 0.2548	0.569
x1 = 0.001131, x2 = 0.5062	0.537
x1 = 0.001182, x2 = 0.7541	0.505
x1 = 0.001455, x2 = 0.2547	0.575
x1 = 0.001511, x2 = 0.506	0.542
x1 = 0.001573, x2 = 0.7538	0.51
x1 = 0.001821, x2 = 0.2546	0.581
x1 = 0.001889, x2 = 0.5058	0.548
x1 = 0.001971, x2 = 0.7535	0.516
x1 = 0.00218, x2 = 0.2545	0.588
x1 = 0.002268, x2 = 0.5056	0.554
x1 = 0.002368, x2 = 0.7532	0.522
x1 = 0.002547, x2 = 0.2544	0.595
x1 = 0.002646, x2 = 0.5054	0.561
x1 = 0.002758, x2 = 0.7529	0.528

CCCC[P+](CCCC)(CCCC)CCCC.F[B-](F)(F)F + C1COCO1
298.15 K, 100 kPa
Conditions	viscosity [mPa·s]
x1 = 0.0007033	0.595
x1 = 0.001051	0.6
x1 = 0.001406	0.606
x1 = 0.001753	0.613
x1 = 0.002107	0.62
x1 = 0.002453	0.627

CCCC[n+]1ccccc1.N#C[N-]C#N + CC1COC(=O)O1
101 kPa
Conditions	electrical conductivity [S/m]	viscosity [mPa·s]
288.15 K, x1 = 0.1003	0.537	4.857
293.15 K, x1 = 0.4997	1.69	14.49
298.15 K, x1 = 0.3005	1.76	6.995
298.15 K, x1 = 0.7011	2.05	19.85
298.15 K, x1 = 0.7885	2.28	24.95
303.15 K, x1 = 0.3005	1.98	6.097
303.15 K, x1 = 0.6002	2.338	13.28
308.15 K, x1 = 0.1003	1.38	3.024
308.15 K, x1 = 0.3005	2.227	5.372
308.15 K, x1 = 0.7011	2.55	14.09
313.15 K, x1 = 0.1003	1.6	2.75
313.15 K, x1 = 0.3005	2.49	4.766
318.15 K, x1 = 0.1003	1.77	2.498
318.15 K, x1 = 0.7011	3.09	10.47
323.15 K, x1 = 0.197	2.44	3.04
323.15 K, x1 = 0.3005	3.038	3.842
323.15 K, x1 = 0.7011	3.432	9.16
323.15 K, x1 = 0.7885	3.732	10.85
328.15 K, x1 = 0.6002	3.724	6.707
328.15 K, x1 = 1	3.2	12.59
333.15 K, x1 = 0.197	2.94	2.58
333.15 K, x1 = 0.3005	3.66	3.172
333.15 K, x1 = 0.7011	4.16	7.185
333.15 K, x1 = 1	3.49	11.08
338.15 K, x1 = 0.197	3.17	2.394
343.15 K, x1 = 0.7011	4.98	5.796
343.15 K, x1 = 0.9008	5.122	7.641
348.15 K, x1 = 0.3005	4.732	2.474
348.15 K, x1 = 0.7011	5.416	5.253
353.15 K, x1 = 0.4003	5.33	2.965

CC[n+]1ccn(C)c1.N#C[S-] + CC1COC(=O)O1
101.3 kPa
Conditions	electrical conductivity [S/m]	viscosity [mPa·s]
293.15 K, x1 = 0.2045	2.09	5.834
293.15 K, x1 = 0.2984	2.24	7.631
298.15 K, x1 = 0.0989	1.68	3.689
298.15 K, x1 = 0.4	2.36	8.466
298.15 K, x1 = 0.599	2.15	12.93
298.15 K, x1 = 0.7045	2.06	15.47
313.15 K, x1 = 0.7045	2.76	10.1
318.15 K, x1 = 0.2045	3.18	2.991
318.15 K, x1 = 0.2984	3.43	3.817
318.15 K, x1 = 0.599	3.12	7.316
318.15 K, x1 = 0.7045	3.02	8.83
318.15 K, x1 = 0.8942	2.77	11.64
323.15 K, x1 = 0.2045	3.45	2.665
323.15 K, x1 = 0.499	3.49	5.278
323.15 K, x1 = 0.599	3.4	6.4
328.15 K, x1 = 0.499	3.77	4.608
328.15 K, x1 = 0.599	3.68	5.614
328.15 K, x1 = 0.796	3.45	7.7
328.15 K, x1 = 0.8942	3.31	8.9
333.15 K, x1 = 0.0989	3.33	1.702
338.15 K, x1 = 0.0989	3.601	–
338.18 K, x1 = 0.2984	–	2.283
343.15 K, x1 = 0.4	4.79	2.568
343.15 K, x1 = 0.499	4.66	3.183
343.15 K, x1 = 1	4.01	7.236

C=C[n+]1ccn(CC(N)=O)c1.O=S(=O)([N-]S(=O)(=O)C(F)(F)F)C(F)(F)F + CC#N
100 kPa
Conditions	electrical conductivity [S/m]	viscosity [mPa·s]
298.15 K, x1 = 0.01	1.29	0.67
303.15 K, x1 = 0.07	3.51	–
303.15 K, x1 = 0.1	3.28	10
303.15 K, x1 = 0.2	1.77	–
303.15 K, x1 = 0.201	–	69
303.15 K, x1 = 0.393	0.48	–
303.15 K, x1 = 0.4011	–	680
308.15 K, x1 = 0.01	1.4	0.61
308.15 K, x1 = 0.02	2.78	–
308.15 K, x1 = 0.201	–	60
308.15 K, x1 = 1	0.03	–
313.15 K, x1 = 0.1	3.8	8.2
313.15 K, x1 = 0.4011	–	424
318.15 K, x1 = 0.01	1.53	0.55
318.15 K, x1 = 0.047	3.87	–
318.15 K, x1 = 0.2	2.38	–
323.15 K, x1 = 0.08	4.39	–
323.15 K, x1 = 0.2	2.58	–
323.15 K, x1 = 0.3026	–	119
323.15 K, x1 = 1	0.1	–
328.15 K, x1 = 0.07	4.58	–
328.15 K, x1 = 0.1	4.49	6.6
328.15 K, x1 = 0.4011	–	233
328.15 K, x1 = 1	0.14	–
333.15 K, x1 = 0.047	4.34	–
333.15 K, x1 = 0.201	–	32.7
